From patent US20180319810A1, “SUBSTITUTED BRIDGED UREA ANALOGS AS SIRTUIN MODULATORS” (GlaxoSmithKline Intellectual Property (No.2) Limited, priority 2014, published 2018)

Molecular target: T1, SIRT1 (Homo sapiens, UniProt Q96EB6)
T1 sequence (Q96EB6 1-747): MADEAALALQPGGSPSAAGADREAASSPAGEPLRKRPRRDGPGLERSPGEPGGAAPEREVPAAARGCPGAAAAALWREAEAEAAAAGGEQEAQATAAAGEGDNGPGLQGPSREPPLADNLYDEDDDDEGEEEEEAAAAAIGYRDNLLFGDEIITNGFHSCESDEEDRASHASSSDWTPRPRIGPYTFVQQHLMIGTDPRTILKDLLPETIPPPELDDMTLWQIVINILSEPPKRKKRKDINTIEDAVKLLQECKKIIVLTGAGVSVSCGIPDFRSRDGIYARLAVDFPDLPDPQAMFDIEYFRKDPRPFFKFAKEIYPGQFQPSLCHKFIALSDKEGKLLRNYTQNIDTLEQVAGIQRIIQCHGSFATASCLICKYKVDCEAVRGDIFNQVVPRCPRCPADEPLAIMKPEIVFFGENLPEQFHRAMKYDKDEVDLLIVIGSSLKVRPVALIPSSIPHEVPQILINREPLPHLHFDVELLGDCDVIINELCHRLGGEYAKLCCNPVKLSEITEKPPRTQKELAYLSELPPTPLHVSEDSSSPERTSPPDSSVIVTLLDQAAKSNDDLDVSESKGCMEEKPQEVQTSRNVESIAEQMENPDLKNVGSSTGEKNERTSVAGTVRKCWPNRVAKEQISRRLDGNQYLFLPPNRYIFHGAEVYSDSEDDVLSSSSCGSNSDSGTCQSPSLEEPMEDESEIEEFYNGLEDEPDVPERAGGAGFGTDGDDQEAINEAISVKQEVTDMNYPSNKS
Assay: Trp mass spectrometry assay of SIRT1 activation
Type: biochemical
Settings: Trp peptide Ac-R-H-K-K(Ac)-W-NH2 0.5 μM, 120 μM βNAD+, 10 nM SIRT1, 25 min, 25° C.

| Structure (SMILES) | TRP Activity (EC1.5, concentration of compound required to increase SIRT1 activity by 50% over control) | TRP MAX RESP (percent maximum fold activation relative to control) |
| --- | --- | --- |
| O=C(Nc1ncc(OC[C@@H](O)CO)cn1)N1c2nc(-c3cccc(C(F)(F)F)c3)ncc2N2CC[C@H]1C2 [Example 43, (8S)—N-(5-((S)-2,3-dihydroxypropoxy)pyrimidin-2-yl)-2-(3-(trifluoromethyl)phenyl)-7,8-dihydro-5,8-methanopyrimido[4,5-b][1,4]diazepine-9(6H)-carboxamide] | B (EC1.5 1-25 μM) | A (Fold activation ≥150%) |
| O=C(NC1CC1)N1c2nc(-c3cccc(C(F)(F)F)c3)ncc2N2CC[C@H]1C2 [Example 15, (8S)—N-cyclopropyl-2-(3-(trifluoromethyl)phenyl)-7,8-dihydro-5,8-methanopyrimido[4,5-b][1,4]diazepine-9(6H)-carboxamide] | A (EC1.5<1 μM) | A (Fold activation ≥150%) |
| O=C(NCC(F)(F)F)c1ncc2c(n1)N(C(=O)Nc1ccccn1)[C@H]1CCCN2C1 [Example 62, (9S)—N10-(pyridin-2-yl)-N2-(2,2,2-trifluoroethyl)-8,9-dihydro-6H-5,9-methanopyrimido[4,5-b][1,4]diazocine-2,10(7H)-dicarboxamide] | A (EC1.5<1 μM) | A (Fold activation ≥150%) |
| Cc1nc(C(=O)N[C@H](C)C(F)(F)F)nc2c1N1CCC[C@@H](C1)N2C(=O)Nc1cc(OC[C@H](O)CO)ccn1 [Example 67, (9S)—N10-(4-((R)-2,3-dihydroxypropoxy)pyridin-2-yl)-4-methyl-N2-((R)-1,1,1-trifluoropropan-2-yl)-8,9-dihydro-6H-5,9-methanopyrimido[4,5-b][1,4]diazocine-2,10(7H)-dicarboxamide] | A (EC1.5<1 μM) | A (Fold activation ≥150%) |
| Cc1ccc2c(NC(=O)N3c4nc(C(=O)N[C@H](C)C(F)(F)F)ncc4N4CCC[C@H]3C4)n[nH]c2n1 [Example 72, (9S)—N10-(6-methyl-1H-pyrazolo[3,4-b]pyridin-3-yl)-N2-((R)-1,1,1-trifluoropropan-2-yl)-8,9-dihydro-6H-5,9-methanopyrimido[4,5-b][1,4]diazocine-2,10(7H)-dicarboxamide] | A (EC1.5<1 μM) | A (Fold activation ≥150%) |

Next, values leading:

| TRP Activity (EC1.5, concentration of compound required to increase SIRT1 activity by 50% over control) | TRP MAX RESP (percent maximum fold activation relative to control) | Structure (SMILES) |
| --- | --- | --- |
| A (EC1.5<1 μM) | A (Fold activation ≥150%) | O=C(Nc1ccnc(OC[C@H](O)CO)c1)N1c2nc(-c3cccc(C(F)(F)F)c3)ncc2N2CCC[C@H]1C2 [Example 90, (9S)—N-(2-((R)-2,3-dihydroxypropoxy)pyridin-4-yl)-2-(3-(trifluoromethyl)phenyl)-8,9-dihydro-6H-5,9-methanopyrimido[4,5-b][1,4]diazocine-10(7H)-carboxamide] |
| A (EC1.5<1 μM) | A (Fold activation ≥150%) | O=C(Nc1ccnc(OC[C@H](O)CO)n1)N1c2nc(-c3cccc(C(F)(F)F)c3)ncc2N2CCC[C@H]1C2 [Example 88, (9S)—N-(2-((R)-2,3-dihydroxypropoxy)pyrimidin-4-yl)-2-(3-(trifluoromethyl)phenyl)-8,9-dihydro-6H-5,9-methanopyrimido[4,5-b][1,4]diazocine-10(7H)-carboxamide] |
| A (EC1.5<1 μM) | A (Fold activation ≥150%) | O=C(Nc1cccc(OC[C@@H](O)CO)n1)N1c2nc(-c3cccc(C(F)(F)F)c3)ncc2N2CCC[C@H]1C2 [Example 84, (9S)—N-(6-((S)-2,3-dihydroxypropoxy)pyridin-2-yl)-2-(3-(trifluoromethyl)phenyl)-8,9-dihydro-6H-5,9-methanopyrimido[4,5-b][1,4]diazocine-10(7H)-carboxamide] |
